A value given as a limit tells only on which side of the number the result lay.

Experiment [1] concerns the target T1, Transcription factor AP1 (Homo sapiens, UniProt P05412+P01100). Nature of the experiment: Inhibitory activity on AP1 DNA-binding at 1 mM. The class given is protein-complex assay.
Experiment [2] concerns the target T1, Transcription factor AP1. The experiment in a line: Inhibitory activity on AP1 DNA-binding at 500 uM. Format: protein-complex assay.
For experiment [3], the target named is T2, Transcription factor AP1 (Homo sapiens, UniProt P01100+P05412). The experiment in a line: (§1) Inhibitory activity on AP1 using ELISA based AP1 DNA binding. The class given is protein-complex assay.
T2 sequence (P05412 whole entry): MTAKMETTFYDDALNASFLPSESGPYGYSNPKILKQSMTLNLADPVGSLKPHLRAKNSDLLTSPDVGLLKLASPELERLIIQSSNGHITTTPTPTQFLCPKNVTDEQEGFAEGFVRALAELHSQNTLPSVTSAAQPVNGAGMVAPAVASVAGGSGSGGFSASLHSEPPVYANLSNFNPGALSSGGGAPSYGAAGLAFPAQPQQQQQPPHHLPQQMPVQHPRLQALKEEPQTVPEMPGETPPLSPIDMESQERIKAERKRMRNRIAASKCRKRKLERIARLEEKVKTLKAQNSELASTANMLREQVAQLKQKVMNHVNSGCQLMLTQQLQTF
T2 sequence (P01100 whole entry): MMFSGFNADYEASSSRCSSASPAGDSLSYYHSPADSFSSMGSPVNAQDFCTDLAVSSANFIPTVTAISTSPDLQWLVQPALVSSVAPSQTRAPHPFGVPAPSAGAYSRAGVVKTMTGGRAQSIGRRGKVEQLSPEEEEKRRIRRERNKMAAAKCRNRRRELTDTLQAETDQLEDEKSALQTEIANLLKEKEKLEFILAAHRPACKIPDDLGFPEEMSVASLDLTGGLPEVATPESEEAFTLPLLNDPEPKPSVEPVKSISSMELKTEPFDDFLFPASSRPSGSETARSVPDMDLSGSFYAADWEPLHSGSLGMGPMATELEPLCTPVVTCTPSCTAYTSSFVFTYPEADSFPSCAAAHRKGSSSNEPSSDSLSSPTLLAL
The target of experiment [4] is T1, Transcription factor AP1. Nature of the experiment: (§2) Inhibition of the expression of AP1-luciferase by TPA-stimulated NIH3T3 cells. Format: cell-based. Conditions: nih3t3.
The target of experiment [5] is T1, Transcription factor AP1. The experiment is described as §1. Format: protein-complex assay.
In experiment [6] the target is T2, Transcription factor AP1. The experiment is described as §2. Format: cell-based.

T1 sequence (P05412 whole entry): as the sequence (P05412 whole entry) above
T1 sequence (P01100 whole entry): as the sequence (P01100 whole entry) above

In the case of `CC(C)COc1ccc(C(=O)c2ccc(OCc3ccccc3)c(CCC(=O)O)c2)cc1`, the inhibition on Transcription factor AP1 [1] is 97%; at Transcription factor AP1 [2], 51%. At Transcription factor AP1 [3], this molecule returned a half-inhibitory concentration (IC50) of 420 µM.

Turning to `CC(C)COc1ccc(C(=O)c2ccc(OCC(C)C)cc2)cc1`, the inhibition at Transcription factor AP1 [2] came to 3%.

In turn, `CC(C)COc1ccc(C(=O)c2ccc(OCC(C)C)c(CCC(N)=O)c2)cc1` came in with an inhibition at Transcription factor AP1 [2] of 5%.

Consider `CCCOc1ccc(C(=O)c2ccc(OCC(C)C)cc2)cc1CCC(=O)O`, for which the results for the inhibition on Transcription factor AP1 [1] and on Transcription factor AP1 [2] were 55% and 26%, respectively. Also, the IC50 on Transcription factor AP1 [3] came out at 910 µM.

`CCCOc1ccc(C(=O)c2ccc(OCC(C)C)c(CCC(=O)O)c2)cc1`: the inhibition came to 42% on Transcription factor AP1 [1] and 25% at Transcription factor AP1 [2]. The molecule also yielded a half-maximal inhibitory concentration (IC50) on Transcription factor AP1 [3] of 930 µM.

Regarding `CC(C)COc1ccc(C(=O)c2ccccc2)cc1CCC(=O)O`, the values for the inhibition at Transcription factor AP1 [1] and on Transcription factor AP1 [2] were 9% and 7%, respectively. This molecule yielded an IC50 at Transcription factor AP1 [3] of more than 2000 µM.

For `CC(C)CCC=C1CCC2(CC1)SC[C@@H](C(=O)O)N2C(=O)CCC(C)C` (stereo partly drawn), the IC50 against Transcription factor AP1 [4] stood at 11.8 µM; on Transcription factor AP1 [5], 650 µM.

On to `CC(C)COc1cccc(C(=O)c2ccc(OCC(C)C)c(CCC(=O)O)c2)c1`, for which the IC50 is 5.8 µM against Transcription factor AP1 [6] and 600 µM on Transcription factor AP1 [3].

Take `CC(C)COc1ccc(C(=O)c2cccc(CCC(=O)O)c2)cc1`: the inhibition was determined as 14% at Transcription factor AP1 [1] and 10% at Transcription factor AP1 [2]. Besides, at Transcription factor AP1 [3], the IC50 was more than 2000 µM.

`CC(C)CC=C1CCC2(CC1)SC[C@@H](C(=O)O)N2C(=O)CCCC(C)C` (stereo partly drawn): the IC50 worked out at 13.3 µM against Transcription factor AP1 [4] and 460 µM on Transcription factor AP1 [5].

In the case of `CC(C)COc1ccc(C(=O)c2ccc(OCc3ccccc3)cc2)cc1CCC(=O)O`, the inhibition on Transcription factor AP1 [2] came out at 45%.

Take `CC(C)COc1ccc(C(=O)c2ccc(OCC(C)C)c(CCC(=O)O)c2)cc1`: the inhibition on Transcription factor AP1 [1] turned out to be 91%; at Transcription factor AP1 [2], 28%. In addition, the IC50 against Transcription factor AP1 [6] came to 5 µM; on Transcription factor AP1 [3] it was 610 µM.

Values taken from ChEMBL document CHEMBL1148596, “Discovery of nonpeptidic small-molecule AP-1 inhibitors: lead hopping based on a three-dimensional pharmacophore model” (J Med Chem, 2006).
